This is an account of results in ChEMBL document CHEMBL5096219, “Design, synthesis and biological evaluation of novel pyrazinone derivatives as PI3K/HDAC dual inhibitors” (Bioorg Med Chem, 2022).

Broadly, the IC50 is the point on the concentration scale where inhibition reaches its midpoint. The term inhibition denotes the relative decrease from the control value, in per cent.

Experiment [1] deals with T1, Protein deacetylase HDAC6 (Homo sapiens, UniProt Q9UBN7).
T1 sequence (Q9UBN7 whole entry): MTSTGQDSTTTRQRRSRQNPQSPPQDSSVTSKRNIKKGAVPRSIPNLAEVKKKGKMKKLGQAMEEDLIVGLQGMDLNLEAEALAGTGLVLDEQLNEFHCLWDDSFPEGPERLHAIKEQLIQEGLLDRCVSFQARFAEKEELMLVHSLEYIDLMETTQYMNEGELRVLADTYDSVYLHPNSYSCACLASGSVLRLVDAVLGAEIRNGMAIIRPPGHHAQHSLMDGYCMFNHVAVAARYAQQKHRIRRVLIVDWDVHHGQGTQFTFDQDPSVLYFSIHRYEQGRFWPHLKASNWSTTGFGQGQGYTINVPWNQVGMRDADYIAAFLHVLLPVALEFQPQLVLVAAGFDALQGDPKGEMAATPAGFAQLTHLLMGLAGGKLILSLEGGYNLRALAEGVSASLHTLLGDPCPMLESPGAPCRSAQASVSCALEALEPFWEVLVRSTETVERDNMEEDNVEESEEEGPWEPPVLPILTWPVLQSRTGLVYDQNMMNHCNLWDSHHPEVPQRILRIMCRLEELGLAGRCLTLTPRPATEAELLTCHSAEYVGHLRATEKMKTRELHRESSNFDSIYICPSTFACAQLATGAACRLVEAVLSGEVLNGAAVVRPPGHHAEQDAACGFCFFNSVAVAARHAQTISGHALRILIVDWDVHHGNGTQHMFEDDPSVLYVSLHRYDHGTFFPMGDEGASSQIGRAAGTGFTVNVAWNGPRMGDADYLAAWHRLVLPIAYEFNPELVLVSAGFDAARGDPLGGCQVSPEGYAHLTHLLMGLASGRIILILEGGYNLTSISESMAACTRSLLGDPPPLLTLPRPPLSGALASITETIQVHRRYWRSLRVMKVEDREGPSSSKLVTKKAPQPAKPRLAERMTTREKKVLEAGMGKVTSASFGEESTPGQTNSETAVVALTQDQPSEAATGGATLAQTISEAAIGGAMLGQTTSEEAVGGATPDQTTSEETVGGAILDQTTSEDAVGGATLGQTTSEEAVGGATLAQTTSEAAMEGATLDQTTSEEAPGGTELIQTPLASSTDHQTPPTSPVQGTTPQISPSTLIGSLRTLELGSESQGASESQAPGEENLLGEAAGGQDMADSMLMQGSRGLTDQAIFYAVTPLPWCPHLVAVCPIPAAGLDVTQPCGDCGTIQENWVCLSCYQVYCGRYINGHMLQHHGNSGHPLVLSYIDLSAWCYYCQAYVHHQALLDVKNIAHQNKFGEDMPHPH
As to the kind of experiment: Inhibition of HDAC6 (unknown origin).

The next experiment concerns K562. Briefly: cells. Format: functional, cell-based. As to conditions: Homo sapiens, K562, 72 h.
The target of experiment [2] is T2, Protein deacetylase HDAC6 (Homo sapiens) (UniProt Q9UBN7).
T2 sequence (whole entry): T1 sequence (Q9UBN7 whole entry)
As to conditions: dose 100.0 nM.
Description: Inhibition of HDAC6 (unknown origin) at 100 nM

In experiment [3] the target is Phosphatidylinositol 4,5-bisphosphate 3-kinase catalytic subunit alpha isoform (Homo sapiens, UniProt P42336). As to the kind of experiment: Inhibition of PI3Kalpha (unknown origin) by mobility shift assay.
In experiment [4] the test system is MV4-11. Briefly: cells. Format: functional, cell-based. Conditions: Homo sapiens, MV4-11, 72 h.
Description: Antiproliferative activity against human MV4-11 cells assessed as inhibition of cell proliferation incubated for 72 hrs by CCK8 assay
The test system of another experiment is HL-60. Briefly: cells. Format: functional, cell-based. As to conditions: Homo sapiens, HL-60, 72 h.
Experiment [5] relates to MV4-11. Briefly: Induction of cell cycle arrest in human MV4-11 cells assessed as accumulation of cells at G0/G1 phase at 1 uM incubated for 48 hrs by […]PI staining based flow cytometry (reference value: 33.1%). Format: functional. In general terms: In flow cytometry, cells or beads pass a laser one at a time.
The test system of experiment [6] is MV4-11. Briefly: Induction of apoptosis in human MV4-11 cells assessed as early apoptotic cells at 1 uM incubated for 48 hrs by Annexin V-FITC/PI staining based flow cytometry (reference value: 0.95%). The class given is functional.
Experiment [7] relates to MV4-11. Briefly: Induction of cell cycle arrest in human MV4-11 cells assessed as accumulation of cells at G2/M phase at 1 uM incubated for 48 hrs by […]PI staining based flow cytometry (reference value: 11.5%). Format: functional.
The test system of experiment [8] is MV4-11. As to the kind of experiment: Induction of cell cycle arrest in human MV4-11 cells assessed as accumulation of cells at S phase at 1 uM incubated for 48 hrs by […]PI staining based flow cytometry (reference value: 45.5%). Format: functional.
Experiment [9] deals with MV4-11. Briefly: Induction of apoptosis in human MV4-11 cells assessed as necrotic cells at 1 uM incubated for 48 hrs by Annexin V-FITC/PI staining based flow cytometry (reference value: 0.51%). The class given is functional.
The subject of experiment [10] is MV4-11. As to the kind of experiment: Induction of apoptosis in human MV4-11 cells assessed as late apoptotic cells at 1 uM incubated for 48 hrs by Annexin V-FITC/PI staining based flow cytometry (reference value: 2.04%). The class given is functional.
For experiment [11], the system named is MV4-11. As to the kind of experiment: Induction of apoptosis in human MV4-11 cells assessed as viable cells at 1 uM incubated for 48 hrs by Annexin V-FITC/PI staining based flow cytometry (reference value: 96.5%). As to conditions: read-out: Activity. Format: functional.

Phosphatidylinositol 4,5-bisphosphate 3-kinase catalytic subunit alpha isoform, sequence (P42336 whole entry, canonical isoform): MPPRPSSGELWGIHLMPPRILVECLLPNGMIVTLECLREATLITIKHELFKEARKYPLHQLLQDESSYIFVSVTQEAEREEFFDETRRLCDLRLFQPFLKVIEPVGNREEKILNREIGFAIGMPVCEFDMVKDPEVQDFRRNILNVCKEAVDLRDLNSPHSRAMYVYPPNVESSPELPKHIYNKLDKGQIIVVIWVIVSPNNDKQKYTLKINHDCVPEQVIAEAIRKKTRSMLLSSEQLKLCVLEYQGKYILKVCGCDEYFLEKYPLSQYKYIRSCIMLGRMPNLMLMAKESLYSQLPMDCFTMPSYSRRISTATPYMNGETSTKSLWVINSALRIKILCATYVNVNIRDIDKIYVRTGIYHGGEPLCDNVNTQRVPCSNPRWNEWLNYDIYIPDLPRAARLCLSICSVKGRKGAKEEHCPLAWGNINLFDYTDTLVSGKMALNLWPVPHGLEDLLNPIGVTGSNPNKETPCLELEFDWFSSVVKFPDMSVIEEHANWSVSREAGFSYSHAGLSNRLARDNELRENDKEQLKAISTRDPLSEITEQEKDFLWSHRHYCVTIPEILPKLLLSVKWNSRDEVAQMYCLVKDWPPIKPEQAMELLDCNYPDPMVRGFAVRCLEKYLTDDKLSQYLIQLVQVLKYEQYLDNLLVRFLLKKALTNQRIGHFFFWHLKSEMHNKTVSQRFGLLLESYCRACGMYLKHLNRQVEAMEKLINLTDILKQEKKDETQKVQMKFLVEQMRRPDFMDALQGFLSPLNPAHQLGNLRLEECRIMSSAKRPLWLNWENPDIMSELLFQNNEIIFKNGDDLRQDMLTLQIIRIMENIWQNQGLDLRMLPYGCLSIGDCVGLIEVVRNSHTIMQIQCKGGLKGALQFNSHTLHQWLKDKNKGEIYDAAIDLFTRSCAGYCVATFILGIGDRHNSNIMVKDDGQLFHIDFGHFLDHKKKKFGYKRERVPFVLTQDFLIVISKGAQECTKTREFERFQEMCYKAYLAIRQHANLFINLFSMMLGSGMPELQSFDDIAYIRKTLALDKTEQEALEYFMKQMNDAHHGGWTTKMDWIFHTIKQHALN
Description for HL-60: Antiproliferative activity against human HL-60 cells assessed as inhibition of cell proliferation incubated for 72 hrs by CCK8 assay
Description for K562: Antiproliferative activity against human K562 cells assessed as inhibition of cell proliferation incubated for 72 hrs by CCK8 assay

In the case of `O=C(NO)c1ccc(Cn2cc(-c3ccc(CO)cc3)nc(N3CCOCC3)c2=O)cc1`, the IC50 in experiment [1] is 15 nM.
For `Nc1ncc(-c2cn(Cc3ccc(C(=O)NO)cc3)c(=O)c(N3CCOCC3)n2)cn1`, the concentration for half-maximal inhibition (IC50) was determined as 13800 nM with K562; 15 nM in experiment [1]; 197 nM in experiment [3]; 4850 nM in the experiment on MV4-11 [4]; 21000 nM in the experiment on HL-60. The inhibition in experiment [2] came out at 92%.
On to `Nc1ncc(-c2cn(CCCCCCCC(=O)NO)c(=O)c(N3CCOCC3)n2)cn1`, for which the IC50 amounted to 4560 nM in the experiment on K562; 194 nM in [1]; 278 nM in experiment [3]; 1520 nM in the experiment on MV4-11 [4]; 9870 nM in the experiment with HL-60. Further, the inhibition in [2] was found to be 27%.
With `O=C(CCCCCCC(=O)Nc1ccccc1)NO` [VORINOSTAT], the Activity worked out at 43.2% with MV4-11 [5]; 9.99% in the experiment with MV4-11 [6]; 28.6% with MV4-11 [7]; 5.62% in the experiment with MV4-11 [8]; 0.93% in the experiment on MV4-11 [9]; 12.9% in the experiment with MV4-11 [10]. The viability at 1 µM in the experiment with MV4-11 [11] came out at 76.1%.
The compound `CN1CCN(c2nc(-c3cnc(N)nc3)cn(Cc3ccc(C(=O)NO)cc3)c2=O)CC1` came in with an IC50 in [1] of 4.2 nM.
In experiment [1], `Cc1noc(C)c1-c1cn(Cc2ccc(C(=O)NO)cc2)c(=O)c(N2CCOCC2)n1` yielded a 50% inhibitory concentration (IC50) of 32 nM.
For the compound `Nc1ccc(-c2cn(Cc3ccc(C(=O)NO)cc3)c(=O)c(N3CCOCC3)n2)cn1`, it took 12 nM to reach half-maximal inhibition in experiment [1] (IC50). Also, the inhibition in [2] was 91%.
As to `Nc1ncc(-c2cn(Cc3ccc(C(=O)NO)cc3)c(=O)c(N3CCCCC3)n2)cn1`, half-maximal inhibition in experiment [1] (IC50) required 4.2 nM.
Compound `Nc1ncc(-c2cn(Cc3ccc(C(=O)NO)cc3)c(=O)c(Nc3ccccc3)n2)cn1` registered an IC50 in experiment [1] of 6.9 nM.
`Nc1ccc(-c2cn(Cc3ccc(C(=O)NO)cc3)c(=O)c(N3CCOCC3)n2)cc1` registered an IC50 in experiment [1] of 13 nM. In addition, in [2], the inhibition came to 101%.
In the case of `O=C(NO)c1ccc(Cn2cc(-c3cccnc3)nc(N3CCOCC3)c2=O)cc1`, the IC50 in [1] was determined as 15 nM. The inhibition in experiment [2] came to 92%.
Taken in the same sequence, the figures for `Nc1ncc(-c2cc(N3CCOCC3)c(=O)n(Cc3ccc(C(=O)NO)cc3)n2)cn1` were 13 nM and 94%.
Consider `Nc1cc(C(F)(F)F)c(-c2cc(N3CCOCC3)nc(N3CCOCC3)n2)cn1` [BUPARLISIB], for which the figures for the IC50 in the experiment with K562, in the experiment with MV4-11 [4] and in the experiment on HL-60 were 730 nM, 730 nM and 1510 nM, respectively. Further, the Activity with MV4-11 [5] is on record as 48.1%; in the experiment on MV4-11 [6], 1.37%; in the experiment with MV4-11 [7], 9.96%; in the experiment on MV4-11 [8], 34.7%; in the experiment on MV4-11 [9], 3.19%; in the experiment on MV4-11 [10], 6.42%. Besides, the viability at 1 µM with MV4-11 [11] was determined as 89%.
As to `Nc1ncc(-c2cn(Cc3cccc(C(=O)NO)c3)c(=O)c(N3CCOCC3)n2)cn1`, in experiment [1], the IC50 amounted to 650 nM.
`Nc1ncc(-c2cc(N3CCOCC3)c(=O)n(Cc3ccc(C(=O)NO)cc3)c2)cn1`: half-maximal inhibition in experiment [1] (IC50) was put at 20 nM. Also, the inhibition in experiment [2] was determined as 95%.
For the compound `O=C(NO)c1ccc(Cn2cc(-c3cccc(CO)c3)nc(N3CCOCC3)c2=O)cc1`, the IC50 in the experiment with K562 is 590 nM; in experiment [1] it was 14 nM; in the experiment with MV4-11 [4] it was 70 nM; in the experiment with HL-60, 580 nM.
With `CNc1ncc(-c2cn(Cc3ccc(C(=O)NO)cc3)c(=O)c(N3CCOCC3)n2)cn1`, the IC50 was found to be 6120 nM with K562; 9.1 nM in experiment [1]; 336 nM in [3]; 1370 nM with MV4-11 [4]; 4290 nM with HL-60.
Consider `O=C(NO)c1ccc(Cn2cc(-c3cccc(O)c3)nc(N3CCOCC3)c2=O)cc1`, for which the IC50 in the experiment with K562 was found to be 3840 nM; in [1], 23 nM; in experiment [3], 467 nM; in the experiment with MV4-11 [4], 90 nM; in the experiment with HL-60 it was 1140 nM. Further, the inhibition in experiment [2] was 94%.
The compound `COC1CCN(c2nc(-c3cnc(N)nc3)cn(Cc3ccc(C(=O)NO)cc3)c2=O)CC1` came in with an IC50 in [1] of 7.4 nM.
In experiment [1], `O=C(NO)c1ccc(Cn2cc(-c3cncnc3)nc(N3CCOCC3)c2=O)cc1` returned an IC50 of 35 nM. For the same compound, the inhibition in experiment [2] was 69%.
Compound `O=C(NO)c1ccc(Cn2cc(-c3ccc(O)cc3)nc(N3CCOCC3)c2=O)cc1` showed an IC50 in experiment [1] of 14 nM. Also, the inhibition in experiment [2] stood at 94%.
In experiment [1], `O=C(NO)c1ccc(Cn2cc(-c3cn[nH]c3)nc(N3CCOCC3)c2=O)cc1` came in with an IC50 of 30 nM.
As for `Nc1ncc(-c2cn(CCCCCC(=O)NO)c(=O)c(N3CCOCC3)n2)cn1`, the IC50 in the experiment with K562 is above 50000 nM; in experiment [1] it was 109 nM; in [3], 157 nM; with MV4-11 [4], 19700 nM; with HL-60, 12700 nM. The inhibition in experiment [2] is 45%.
`Cn1cc(-c2cn(Cc3ccc(C(=O)NO)cc3)c(=O)c(N3CCOCC3)n2)cn1` gave an IC50 in experiment [1] of 21 nM.
Turning to `O=C(NO)c1ccc(Cn2cc(-c3ccoc3)nc(N3CCOCC3)c2=O)cc1`, in [1], the IC50 is 7.9 nM.
On to `CCCn1cc(-c2cnc(N)nc2)nc(N2CCOCC2)c1=O`, for which the IC50 in experiment [3] came out at 25 nM.
On to `Nc1ncc(-c2cn(CCCCCCC(=O)NO)c(=O)c(N3CCOCC3)n2)cn1`, for which the half-maximal inhibitory concentration (IC50) in the experiment with K562 was determined as 3840 nM; in experiment [1], 54 nM; in experiment [3] it was 127 nM; in the experiment with MV4-11 [4] it was 1980 nM; in the experiment on HL-60 it was 18400 nM. For the same compound, the inhibition in [2] came out at 73%.
